Measurements as given in US20250032504A1, “NOVEL APPLICATION OF KINASE INHIBITOR” (TRANSTHERA SCIENCES (NANJING), INC., priority 2021, published 2025).

What was measured:
[1] = test system: human prostate cancer LD1-0034-361929 subcutaneous xenograft tumor model; assay: In-vivo pharmacodynamic study on human castration resistant prostate cancer PDX subcutaneous tumor model; parameters: species or system male Nu/Nu nude mice; details: abiraterone-resistant CRPC PDX in nude mice, oral intragastric Qd, 39 days, compound 29 15 mg/kg, abiraterone 200 mg/kg; for TGI (%): TGI=1−T/C
Experimental: Test sample: compound 29 of the present invention, the structure of which is shown above, and which was prepared as described in the detailed description of WO2018108079A1. Abiraterone was obtained from commercially available sources.
Animals, information on the patient from whom the tumor masses were derived, and other materials: human prostate cancer tumor sample LD1-0034-361929, derived from a patient resistant to abiraterone; clinical diagnosis: castration resistant prostate cancer with bladder metastatic lesions, pathological diagnosis: prostate cancer-poorly differentiated adenocarcinoma; • male Nu/Nu nude mice, aged 6-8 weeks.
The tumor masses were inoculated into the right back of mice, and the animals were weighed before administration. Tumor volumes were measured, and grouping was designed in blocks according to the tumor volumes.
Administration was carried out as in the table below.
The animals were monitored daily for health status and mortality, body weight and tumor volume were measured twice a week, and samples were collected after the last administration. The therapeutic effect on tumor volume was evaluated by TGI %, wherein the relative tumor inhibition rate TGI (%): TGI=1−T/C (%). T/C % is the relative tumor proliferation rate, i.e., the percentage of the relative tumor volume in the treatment and control groups at a given time point. T and C are relative tumor volumes (RTVs) of the treatment and control groups at a given time point, respectively. The calculation formula is as follows: T/C %=TRTV/CRTV×100% (TRTV: mean RTV for treatment group; CRTV: mean RTV for vehicle control group; RTV=Vt/V0, wherein V0 is the tumor volume of the animal at the time of grouping, and Vt is the tumor volume of the animal after treatment).

[2] = test system: VCaP; assay: Prostate cancer cell proliferation assay (Cell titer-Glo, 72 h), VCaP; format: cell-based; details: Homo sapiens, VCaP cells, inhibition of proliferation, read-out: Compound IC50/nM
Experimental: (§1) Prostate cancer cell materials: DU145, PC-3, VCaP, and LNCaP clone FGC.
(§2) Test instrument: PE Envision multimode microplate reader.
(§3) Each cell line was seeded in a 384-well plate for adherent culture overnight, and then compounds at different concentrations (10 dose groups, serial 4-fold dilution with DMSO) were added to give a maximum final concentration of 10000 nM, wherein the final DMSO content was 0.33%, and staurosporine at a final concentration of 10 μM was used as a system positive control ([…] inhibition). Negative control wells contained medium with the same amount of DMSO (0% inhibition). The plate was incubated at 37° C., 5% CO2 and 95% humidity for 72 h for later test. 30 μL of Cell titer-Glo reagent was added to each well, and after the plate was incubated at room temperature for 30 min, the final data were read using the microplate reader.
(§4) The data were calculated as follows:
(§5) Inhibition rate (%)=100%−(compound signal−system positive control signal)/(negative control signal−system positive control signal)[…].

[3] = test system: LNCaP clone FGC; assay: Prostate cancer cell proliferation assay (Cell titer-Glo, 72 h), LNCaP clone FGC; format: cell-based; details: Homo sapiens, LNCaP clone FGC cells, inhibition of proliferation, read-out: Compound IC50/nM
Experimental: as §1, §2, §3, §4, §5

[4] = test system: metastatic castration resistant prostate cancer; assay: Clinical study in patients with metastatic castration resistant prostate cancer; format: in vivo, human; details: among 11 mCRPC patients with response evaluation data (10 at 12 mg, 1 at 10 mg), oral once daily, 28-day cycles
Experimental: Test medicament: compound 29, the structure of which is shown above, and which was prepared as described in the detailed description of WO2018108079A1.
Inclusion criteria: patients with histopathologically or cytologically confirmed metastatic castration resistant prostate cancer for which no standard therapy is available.
Dosing regimen: compound 29 was administered orally at a prescribed dose (such as 8 mg, 10 mg, or 12 mg) once daily, with 28 consecutive days of administration being one cycle.
Response evaluation: among the 11 patients with response evaluation data (10 patients received a single dose of 12 mg, and 1 patient received a single dose of 10 mg), 7 patients achieved partial response (PR), and 2 patients reported stable disease (SD).

[5] = test system: DU145; assay: Prostate cancer cell proliferation assay (Cell titer-Glo, 72 h), DU145; format: cell-based; details: Homo sapiens, DU-145, DU145 cells, inhibition of proliferation, read-out: Compound IC50/nM
Experimental: as §1, §2, §3, §4, §5

[6] = test system: PC-3; assay: Prostate cancer cell proliferation assay (Cell titer-Glo, 72 h), PC-3; format: cell-based; details: Homo sapiens, PC-3 cells, inhibition of proliferation, read-out: Compound IC50/nM
Experimental: as §1, §2, §3, §4, §5

SMILES | Tumor volume (mm^3) [1] [mm^3] | TGI (%) [1] [%] | IC50 [2] [nM] | IC50 [3] [nM] | patients achieved partial response (PR) [4] [patients] | IC50 [5] [nM] | IC50 [6] [nM]
C[C@]12CC[C@H](O)CC1=CC[C@@H]1[C@@H]2CC[C@]2(C)C(c3cccnc3)=CC[C@@H]12 [Abiraterone, reference compound] | 1549.43 ± 533.15 | −8.97 | – | – | – | – | –
Cc1[nH]nc2c1N=C(c1ccccc1Cl)c1cnc(N3CCOCC3)cc1N2 [Compound 29] | 622.23 ± 247.3 | 58.07 | < 1000 | 1000 to 10000 | 7 | < 1000 | < 1000
